In general, IC50 refers to the point on the concentration scale where inhibition reaches its midpoint. A higher IC50 goes with lower potency.

The subject of this experiment is NCI-H226 cells. The experiment is described as follows: Antiproliferation assay (2D adherent cell viability, CellTiter-Glo). Conditions: Homo sapiens, 120 h, 5 days treatment, cell viability by CellTiter-Glo. The experiment is classed as cell-based. On the procedure: The compounds were evaluated in vitro. In addition, an anti-proliferation assay was performed using NCI-H226 cells (FIG. 2).
The mixture of 2-fluoro-5-nitrobenzonitrile (1 g, 6.0 mmol), cyclohexanamine (0.6For 2D adherent cell viability experiment, the cells were seeded at 384-well plate (Corning, no. 3570) at the density of 200 cells/well. The next day, compounds were added using Janus workstation (PerkinElmer). After 5 days treatment, the cell viability was measured by CellTiter-Glo kit (Promega, no. G7570) as the manufacturer recommended.
A general note: In ATP-based viability assays light output follows the ATP content of the culture.
Consider `C=CC(=O)Nc1ccc(NC2CCC(F)(F)CC2)c(-c2ncccn2)c1` [Compound A-5, N-(4-(4,4-difluorocyclohexylamino)-3-(pyrimidin-2-yl)phenyl)acrylamide], for which the IC50 stood at 8 nM.
Then `C=CC(=O)Nc1ccc(Nc2ccc(C(F)(F)F)cc2)c(-c2nccc(N3CCC(O)C3)n2)c1` (stereo not shown) [Compound A-7, N-(3-(4-(3-hydroxypyrrolidin-1-yl)pyrimidin-2-yl)-4-(4-(trifluoromethyl)phenylamino)phenyl)acrylamide], with 17 nM.
The same measure for `C=CC(=O)Nc1ccc(Nc2ccc(C(F)(F)F)cc2)c(-c2nccc(OCCO)n2)c1` [Compound A-11, N-(3-(4-(2-hydroxyethoxy)pyrimidin-2-yl)-4-(4-(trifluoromethyl)phenylamino)phenyl)acrylamide]: 40 nM; for `C=CC(=O)Nc1cnc(Oc2ccc(C(F)(F)F)cc2)c(-c2ncccn2)c1` [Compound A-12, N-(5-(pyrimidin-2-yl)-6-(4-(trifluoromethyl)phenoxy)pyridin-3-yl)acrylamide]: 14 nM; for `C=CC(=O)Nc1ccc(Nc2ccc(C(F)(F)F)cc2)c(-c2cccnn2)c1` [Compound A-13, N-(3-(pyridazin-3-yl)-4-(4-(trifluoromethyl)phenylamino)phenyl) acrylamide]: 31 nM.
Then `C=CC(=O)Nc1ccc(Nc2ccc(C(F)(F)F)cc2)c(-c2cc[nH]c(=O)c2)c1` [Compound A-14, N-(3-(2-oxo-1,2-dihydropyridin-4-yl)-4-(4-(trifluoromethyl)phenylamino)phenyl)acrylamide], with 1100 nM; and `C=CC(=O)Nc1ccc(Nc2ccc(C(F)(F)F)cc2)c(-c2ncccn2)c1` [Compound A-21, N-(3-(pyrimidin-2-yl)-4-(4-(trifluoromethyl)phenylamino)phenyl) Acrylamide], with 4 nM.

Values taken from patent publication US20240124406A1, “INHIBITORS OF TRANSCRIPTIONAL ENHANCED ASSOCIATE DOMAIN (TEAD) AND USES THEREOF” (Dana-Farber Cancer Institute, Inc., priority 2020, published 2024).
